# Tested on: S. aureus
# Test: Minimum inhibitory concentrations (MICs) for S. aureus of exemplary compounds (Table 2)
# Format: cell-based
# Conditions: Staphylococcus aureus, minimum inhibitory concentrations for S. aureus; read-out: MICs
# How it was run: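 Growth of S. aureus in media with or without compound, by broth microdilution in microtiter trays following NCCLS M7-A5 guidelines. Values are MICs in μg/mL.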
row,MIC [µg/mL],SMILES
1,2,"CC(=O)NC[C@H]1CN(c2ccc(-c3ccc(CNCc4nn(C)cc4Cl)cc3)c(F)c2)C(=O)O1 [Compound 4139, N-[3-(4′-{[(4-Chloro-1-methyl-1H-pyrazol-3-ylmethyl)-amino]-methyl}-2-fluoro-biphenyl-4-yl)-2-oxo-oxazolidin-5-(S)-ylmethyl]-acetamide]"
2,4,"CC(=O)NC[C@H]1CN(c2ccc(-c3ccc(CNCCc4cnn[nH]4)cc3)c(F)c2)C(=O)O1 [Compound 4266, N-[3-(2-Fluoro-4′-{[2-(3H-[1,2,3]triazol-4-yl)-ethylamino]-methyl}-biphenyl-4-yl)-2-oxo-oxazolidin-5-(S)-ylmethyl]-acetamide]"
3,2,"CC(=O)NC[C@H]1CN(c2ccc(-c3ccc(C[S+]([O-])c4ncnn4C)cc3)c(F)c2)C(=O)O1 (stereo partly drawn) [Compound 2039, N-{3-[2-Fluoro-4′-(2-methyl-2H-[1,2,4]triazole-3-sulfinylmethyl)-biphenyl-4-yl]-2-oxo-oxazolidin-5-(S)-ylmethyl}-acetamide]"
4,1,"CC(=O)NC[C@H]1CN(c2ccc(-c3ccc(Cn4cc(C)nc4C)cc3)c(F)c2)C(=O)O1 [Compound 1068, N-{3-[4′-(2,4-Dimethyl-imidazol-1-ylmethyl)-2-fluoro-biphenyl-4-yl]-2-oxo-oxazolidin-5-(S)-ylmethyl}-acetamide]"
5,0.25,"CC(=O)NC[C@H]1CN(c2ccc(-c3ccc(Cn4cnnn4)cc3)c(F)c2)C(=O)O1 [Compound 1047, N-[3-(2-Fluoro-4′-tetrazol-1-ylmethyl-biphenyl-4-yl)-2-oxo-oxazolidin-5-(S)-ylmethyl]-acetamide]"
6,64,"CC(=O)NC[C@H]1CN(c2ccc(-c3ccc(C(N)c4nnn(C)n4)cc3)c(F)c2)C(=O)O1 (mixture of isomers) [Compound 1042, N-(3-{4′-[Amino-(2-methyl-2H-tetrazol-5-(R/S)-yl)-methyl]-2-fluoro-biphenyl-4-yl}-2-oxo-oxazolidin-5-(S)-ylmethyl)-acetamide]"
7,1,"CC(=O)NC[C@H]1CN(c2ccc(-c3ccc(CSc4nc(C)cs4)cc3)c(F)c2)C(=O)O1 [Compound 2031, N-{3-[2-Fluoro-4′-(4-methyl-thiazol-2-ylsulfanylmethyl)-biphenyl-4-yl]-2-oxo-oxazolidin-5-(S)-ylmethyl}-acetamide]"
8,4,"CC(=O)NC[C@H]1CC(c2ccc(-c3ccc(CNCc4ccncc4)cc3)cc2)=NO1 [Compound 4132, N-[3-(4′-{[(Pyridin-4-ylmethyl)-amino]-methyl}-biphenyl-4-yl)-4,5-dihydro-isoxazol-5-(R)-ylmethyl]-acetamide]"
9,4,"CC(=O)NC[C@H]1CN(c2ccc(-c3ccc(C(CO)NCc4csnn4)cc3)c(F)c2)C(=O)O1 (mixture of isomers) [Compound 4171, N-[3-(2-Fluoro-4′-{2-hydroxy-1-[([1,2,3]thiadiazol-4-(R/S)-ylmethyl)-amino]-ethyl}-biphenyl-4-yl)-2-oxo-oxazolidin-5-(S)-ylmethyl]-acetamide]"
10,0.25,"CC(=O)NC[C@H]1CN(c2ccc(-c3ccc(CNNC(=O)c4ccncc4)cc3)c(F)c2)C(=O)O1 [Compound 4236, N-(3-{2-Fluoro-4′-[N′-(pyridine-4-carbonyl)-hydrazinomethyl]-biphenyl-4-yl}-2-oxo-oxazolidin-5-(S)-ylmethyl)-acetamide]"
11,1,"CC(=O)NC[C@H]1CN(c2ccc(-c3ccc([C@H](O)Cn4ccnn4)cc3)c(F)c2)C(=O)O1 [Compound 1061, N-{3-[2-Fluoro-4′-(1-(S)-hydroxy-2-[1,2,3]triazol-1-yl-ethyl)-biphenyl-4-yl]-2-oxo-oxazolidin-5-(S)-ylmethyl}-acetamide]"
12,2,"CC(=O)NC[C@H]1CN(c2ccc(-c3ccc(CNCCn4ccnn4)cc3)c(F)c2)C(=O)O1 [Compound 4262, N-(3-{2-Fluoro-4′-[(2-[1,2,3]triazol-1-yl-ethylamino)-methyl]-biphenyl-4-yl}-2-oxo-oxazolidin-5-(S)-ylmethyl)-acetamide]"
13,1,"CC(=O)NC[C@H]1CN(c2ccc(-c3ccc(CNCc4ccnc5ccccc45)cc3)c(F)c2)C(=O)O1 [Compound 4016, N-[3-(2-Fluoro-4′-{[(quinolin-4-ylmethyl)-amino]-methyl}-biphenyl-4-yl)-2-oxo-oxazolidin-5-(S)-ylmethyl]-acetamide]"
14,16,"CC(=O)NC[C@H]1CN(c2ccc(-c3ccc(CNCCC4CCCN4C)cc3)c(F)c2)C(=O)O1 (mixture of isomers) [Compound 4150, N-[3-(2-Fluoro-4′-{[2-(R/S)-(1-methyl-pyrrolidin-2-yl)-ethylamino]-methyl}-biphenyl-4-yl)-2-oxo-oxazolidin-5-(S)-ylmethyl]-acetamide]"
15,0.5,"CC(=O)NC[C@H]1CN(c2ccc(-c3ccc(Cn4nnc(C)n4)cc3)c(F)c2)C(=O)O1 [Compound 1059, N-{3-[2-Fluoro-4′-(5-methyl-tetrazol-2-ylmethyl)-biphenyl-4-yl]-2-oxo-oxazolidin-5-(S)-ylmethyl}-acetamide]"
16,0.5,"CC(=O)NC[C@H]1CN(c2ccc(-c3ccc([C@H](O)CN4CCN(C=O)CC4)cc3)c(F)c2)C(=O)O1 [Compound 1044, N-(3-{2-Fluoro-4′-[2-(4-formyl-piperazin-1-yl)-1-(S)-hydroxy-ethyl]-biphenyl-4-yl}-2-oxo-oxazolidin-5-(S)-ylmethyl)-acetamide]"

row,MIC [µg/mL],SMILES
1,0.5,"CC(=O)NC[C@H]1CN(c2ccc(-c3ccc(CNCc4c[nH]nc4-c4cccs4)cc3)c(F)c2)C(=O)O1 [Compound 4127, N-[3-(2-Fluoro-4′-{[(3-thiophen-2-yl-1H-pyrazol-4-ylmethyl)-amino]-methyl}-biphenyl-4-yl)-2-oxo-oxazolidin-5-(S)-ylmethyl]-acetamide]"
2,2,"CCN(Cc1ccncc1)Cc1ccc(-c2ccc(N3C[C@H](CNC(C)=O)OC3=O)cc2F)cc1 [Compound 4035, N-(3-{4′-[(Ethyl-pyridin-4-ylmethyl-amino)-methyl]-2-fluoro-biphenyl-4-yl}-2-oxo-oxazolidin-5-(S)-ylmethyl)-acetamide]"
3,2,"CC(=O)NC[C@H]1CN(c2ccc(-c3ccc(Cn4cnc5c(NCCCF)ncnc54)cc3)c(F)c2)C(=O)O1 [Compound 1098, N-(3-{2-Fluoro-4′-[6-(3-fluoro-propylamino)-purin-9-ylmethyl]-biphenyl-4-yl}-2-oxo-oxazolidin-5-(S)-ylmethyl)-acetamide]"
4,4,"CC(=O)NC[C@H]1CN(c2ccc(-c3ccc(CNCc4cc(C)c(C)o4)cc3)c(F)c2)C(=O)O1 [Compound 4085, N-[3-(4′-{[(4,5-Dimethyl-furan-2-ylmethyl)-amino]-methyl}-2-fluoro-biphenyl-4-yl)-2-oxo-oxazolidin-5-(S)-ylmethyl]-acetamide]"
5,1,"CC(=O)NC[C@H]1CN(c2ccc(-c3ccc(COCc4ccncc4)cc3)c(F)c2)C(=O)O1 [Compound 4196, N-{3-[2-Fluoro-4′-(pyridin-4-ylmethoxymethyl)-biphenyl-4-yl]-2-oxo-oxazolidin-5-(S)-ylmethyl}-acetamide]"
6,8,"CC(=O)NC[C@H]1CN(c2ccc(-c3ccc(CNCc4ncc[nH]4)cc3)c(F)c2)C(=O)O1 [Compound 4091, N-[3-(2-Fluoro-4′-{[(1H-imidazol-2-ylmethyl)-amino]-methyl}-biphenyl-4-yl)-2-oxo-oxazolidin-5-(S)-ylmethyl]-acetamide]"
7,4,"CC(=O)NC[C@H]1CN(c2ccc(-c3ccc(CNCc4c(CO)cnc(C)c4O)cc3)c(F)c2)C(=O)O1 [Compound 4095, N-[3-(2-Fluoro-4′-{[(3-hydroxy-5-hydroxymethyl-2-methyl-pyridin-4-ylmethyl)-amino]-methyl}-biphenyl-4-yl)-2-oxo-oxazolidin-5-(S)-ylmethyl]-acetamide]"
8,0.5,"O=C(NC[C@H]1CN(c2ccc(-c3ccc(Cn4cnnn4)cc3)c(F)c2)C(=O)O1)C(Cl)Cl [Compound 1034, 2,2-Dichloro-N-[3-(2-fluoro-4′-tetrazol-1-ylmethyl-biphenyl-4-yl)-2-oxo-oxazolidin-5-(S)-ylmethyl]-acetamide]"
9,1,"CC(=O)NC[C@H]1CN(c2ccc(-c3ccc(C(=O)NCc4ccccn4)c(F)c3)c(F)c2)C(=O)O1 [Compound 4190, 4′-[5-(S)-(Acetylamino-methyl)-2-oxo-oxazolidin-3-yl]-3,2′-difluoro-biphenyl-4-carboxylic acid (pyridin-2-ylmethyl)-amide]"
10,4,"CC(=O)NC[C@H]1CN(c2ccc(-c3ccc(Cn4cc(CN(C)C)nn4)cc3)c(F)c2)C(=O)O1 [Compound 1013, N-{3-[4′-(4-Dimethylaminomethyl-[1,2,3]triazol-1-ylmethyl)-2-fluoro-biphenyl-4-yl]-2-oxo-oxazolidin-5-(S)-ylmethyl}-acetamide]"
11,1,"CC(=O)NC[C@H]1CN(c2ccc(-c3ccc(C[S+]([O-])c4nncs4)cc3)c(F)c2)C(=O)O1 (stereo partly drawn) [Compound 2035, N-{3-[2-Fluoro-4′-([1,3,4]thiadiazole-2-sulfinylmethyl)-biphenyl-4-yl]-2-oxo-oxazolidin-5-(S)-ylmethyl}-acetamide]"
12,1,"CC(=O)NC[C@H]1CN(c2ccc(-c3ccc(Cn4cnc5c(NCC(F)F)ncnc54)cc3)c(F)c2)C(=O)O1 [Compound 1103, N-(3-{4′-[6-(2,2-Difluoro-ethylamino)-purin-9-ylmethyl]-2-fluoro-biphenyl-4-yl}-2-oxo-oxazolidin-5-(S)-ylmethyl)-acetamide]"
13,2,"CC(=O)NC[C@H]1CN(c2ccc(-c3ccc(CNCc4ccc(Br)cn4)cc3)c(F)c2)C(=O)O1 [Compound 4182, N-[3-(4′-{[(5-Bromo-pyridin-2-ylmethyl)-amino]-methyl}-2-fluoro-biphenyl-4-yl)-2-oxo-oxazolidin-5-(S)-ylmethyl]-acetamide]"
14,8,"COc1cc(CN(C)Cc2ccncc2)ccc1-c1ccc(N2C[C@H](CNC(C)=O)OC2=O)cc1F [Compound 4033, N-(3-{2-Fluoro-2′-methoxy-4′-[(methyl-pyridm-4-ylmethyl-amino)-methyl]-biphenyl-4-yl}-2-oxo-oxazolidin-5-(S)-ylmethyl)-acetamide]"
15,2,"CC(=O)NC[C@H]1CN(c2ccc(-c3ccc(Cn4ccnc4N)cc3)c(F)c2)C(=O)O1 [Compound 1113, N-{3-[4′-(2-Amino-imidazol-1-ylmethyl)-2-fluoro-biphenyl-4-yl]-2-oxo-oxazolidin-5-(S)-ylmethyl}-acetamide]"

# From patent US10471046B2, “Method for treating, preventing, or reducing the risk of skin infection” (Melinta Subsidiary Corp., priority 2014, dated 2019)
